# Reference: patent US20220128542A1, “TREATMENT EFFICIENCY EVALUATION” (TX MEDIC AB, priority 2019, published 2022)
# Tested on: brain of rats subjected to closed-head diffuse severe TBI (sTBI)
# Assay: HPLC of free amino acids and amino group containing compounds in brain, dose study after sTBI (Example 3)
# Assay type: in vivo, rat
# Excerpt: Male Wistar rats (n=160) of 300-350 g body weight were used in this study.
# 1994, 80: 291-300. This model causes diffuse axonal injury and it is able to reproduce the physical and mechanical characteristics of the diffuse TBI in humans.
# Rats were placed prone on a bed of specific polyurethane foam inserted in a special container. This foam dissipates the major part of the potential energy (deriving from the mechanical forces) and prevents any rebound of the animal after the impact that could produce spinal damages.
# These time points are coincident with the worst biochemical derangement (2 days) or, in the case of a mildly injured brain, with a full metabolic recovery (7 days).
# The drug treatment consisted in a subcutaneous injection of 0.5 ml of LMW-DS (Tikomed) and administered at 3 different concentrations (1, 5 and 15 mg/kg body weight), according to the schematic protocol described below.
# Sham-operated animals underwent the same procedure of anesthesia but TBI and were used as the control group.
# Rats used in this study were divided into 4 groups in order to carry out a study on the efficacy of three different concentrations of LMW-DS at two different times post TBI. As subsequently specified, in each group there were animals subjected to a specific treatment for metabolic analyses and other animals intended to histo-morphological studies, according to the procedures described below.
# Rats subjected to sTBI and receiving a single administration of LMW-DS after 30 minutes post-TBI, with sacrifice at 2 days post-TBI. Animals were divided in the following subgroups:
# Rats subjected to sTBI and receiving a single administration of LMW-DS after 30 minutes post-TBI, with sacrifice at 7 days post-TBI. Animals were divided in the following subgroups:
# Rats (n=12) subjected to sTBI and receiving repeated administrations of the maximal dose of LMW-DS (15 mg/kg b.w.) after 30 minutes, 3 days and 5 days post-TBI, with sacrifice at 7 days post-TBI. Four additional rats were used for the histo-morphological studies. Total rats in this group: n=16
# To minimize metabolite loss, an in vivo craniectomy was performed in all animals during anesthesia. The rat skull was carefully removed, the brain was exposed, sharply cut along the sagittal fissure and the two hemispheres were separated. The hemispheres dedicated to biochemical analyses were freeze-clamped by aluminum tongues pre-cooled in liquid nitrogen and then immersed in liquid nitrogen. The freeze-clamping procedure was introduced to accelerate freezing of the tissue, thus minimizing potential metabolite loss.
# Tissue homogenization for metabolite analyses was effected as described below. After the wet weight (w.w.) determination, the frozen hemispheres were placed into 7 ml of ice-cold, nitrogen-saturated, precipitating solution (1:10 w/v) composed by CH3CN+10 mM KH2PO4, pH 7.40, (3:1; v:v), and the homogenization was performed using an Ultra-Turrax homogenizer set at 24,000 rpm/min (Janke & Kunkel, Staufen, Germany). After centrifugation at 20,690×g, for 10 min at 4° C., the clear supernatants were saved, pellets were supplemented with an aliquot of 10 mM KH2PO4 and homogenized again as described above and saved overnight at −20° C. in order to obtain a complete recovery of aqueous phase from tissue. A second centrifugation was performed (20,690×g, for 10 min at 4° C.) and supernatants combined with those previously obtained were extracted by vigorous agitation with a double volume of HPLC-grade CHCl3 and centrifuged as above.
# [1] = rats 2 days post-TBI, single 1 mg/kg b.w. 30 min after trauma
# [2] = rats 2 days post-TBI, single 5 mg/kg b.w. 30 min after trauma
# [3] = rats 2 days post-TBI, single 15 mg/kg b.w. 30 min after trauma
# [4] = rats 7 days post-sTBI, repeated 15 mg/kg b.w.
# [5] = rats 7 days post-sTBI, single 1 mg/kg b.w.
# [6] = rats 7 days post-sTBI, single 5 mg/kg b.w.
# [7] = rats 7 days post-sTBI, single 15 mg/kg b.w.
substance,measurement,setting,value
sodium salt of dextran sulfate [LMW-DS],isoleucine (ILE),2 days post-TBI,restored
same,osmolyte and aromatic free amino acids,2 days post-TBI,No remarkable effects
same,methionine,"2 days post-TBI, any dose tested",Restoration
same,TAU concentrations,7 days after injury,normalized
same,L-Cystathionine (L-Cystat),"7 days post impact, highest dose, single or repeat",significant increase
same,GLU,"7 days post injury, 15 mg/kg b.w. single or repeat",normalization
same,ARG concentration in brain homogenate,[1],0.13 ± 0.03 nmol/g w.w.
same,ASN concentration in brain homogenate,[1],0.13 ± 0.02 µmol/g w.w.
same,ASP concentration in brain homogenate,[1],4.17 ± 0.99 nmol/g w.w.
same,GABA concentration in brain homogenate,[1],1.87 ± 0.17 µmol/g w.w.
same,GLN concentration in brain homogenate,[1],4.37 ± 0.59 µmol/g w.w.
same,GLU concentration in brain homogenate,[1],12.5 ± 0.91 µmol/g w.w.
same,GLY concentration in brain homogenate,[1],1.35 ± 0.26 nmol/g w.w.
same,LYS concentration in brain homogenate,[1],0.29 ± 0.11 µmol/g w.w.
same,MET concentration in brain homogenate,[1],0.04 ± 0.01 µmol/g w.w.
same,ORN concentration in brain homogenate,[1],0.02 ± 0.01 µmol/g w.w.
same,SAH concentration in brain homogenate,[1],0.07 ± 0.02 nmol/g w.w.
same,TAU concentration in brain homogenate,[1],4.98 ± 0.47 nmol/g w.w.
same,THR concentration in brain homogenate,[1],0.70 ± 0.15 nmol/g w.w.
same,TRP concentration in brain homogenate,[1],0.02 ± 0.01 µmol/g w.w.
same,TYR concentration in brain homogenate,[1],0.18 ± 0.03 nmol/g w.w.
same,VAL concentration in brain homogenate,[1],0.07 ± 0.03 µmol/g w.w.
same,ARG concentration in brain homogenate,[2],0.13 ± 0.03 nmol/g w.w.
same,ASP concentration in brain homogenate,[2],4.15 ± 0.95 nmol/g w.w.
same,GABA concentration in brain homogenate,[2],1.99 ± 0.18 µmol/g w.w.
same,GLN concentration in brain homogenate,[2],4.55 ± 0.44 µmol/g w.w.
same,GLY concentration in brain homogenate,[2],1.43 ± 0.28 nmol/g w.w.
same,L-Cystat concentration in brain homogenate,[2],0.31 ± 0.06 µmol/g w.w.
same,LYS concentration in brain homogenate,[2],0.37 ± 0.14 µmol/g w.w.
same,ORN concentration in brain homogenate,[2],0.01 ± 0.01 µmol/g w.w.
same,SAH concentration in brain homogenate,[2],0.07 ± 0.02 nmol/g w.w.
same,TAU concentration in brain homogenate,[2],5.15 ± 0.49 nmol/g w.w.
same,THR concentration in brain homogenate,[2],0.77 ± 0.17 nmol/g w.w.
same,TRP concentration in brain homogenate,[2],0.03 ± 0.01 µmol/g w.w.
same,TYR concentration in brain homogenate,[2],0.20 ± 0.03 nmol/g w.w.
same,VAL concentration in brain homogenate,[2],0.08 ± 0.03 µmol/g w.w.
same,ARG concentration in brain homogenate,[3],0.16 ± 0.04 nmol/g w.w.
same,ASP concentration in brain homogenate,[3],3.05 ± 0.42 nmol/g w.w.
same,GLN concentration in brain homogenate,[3],4.21 ± 0.51 µmol/g w.w.
same,GLY concentration in brain homogenate,[3],1.18 ± 0.23 nmol/g w.w.
same,LEU concentration in brain homogenate,[3],0.04 ± 0.01 µmol/g w.w.
same,LYS concentration in brain homogenate,[3],0.32 ± 0.12 µmol/g w.w.
same,MET concentration in brain homogenate,[3],0.03 ± 0.01 µmol/g w.w.
same,ORN concentration in brain homogenate,[3],0.02 ± 0.01 µmol/g w.w.
same,SAH concentration in brain homogenate,[3],0.06 ± 0.02 nmol/g w.w.
same,TAU concentration in brain homogenate,[3],4.59 ± 0.43 nmol/g w.w.
same,THR concentration in brain homogenate,[3],0.61 ± 0.13 nmol/g w.w.
same,TYR concentration in brain homogenate,[3],0.17 ± 0.03 nmol/g w.w.
same,VAL concentration in brain homogenate,[3],0.06 ± 0.03 µmol/g w.w.
same,ALA concentration in brain homogenate,[4],0.47 ± 0.05 µmol/g w.w.
same,ASN concentration in brain homogenate,[4],0.1 ± 0.02 µmol/g w.w.
same,ASP concentration in brain homogenate,[4],2.42 ± 0.39 nmol/g w.w.
same,CITR concentration in brain homogenate,[4],0.03 ± 0.01 µmol/g w.w.
same,GABA concentration in brain homogenate,[4],1.38 ± 0.14 µmol/g w.w.
same,GLN concentration in brain homogenate,[4],3.88 ± 0.4 µmol/g w.w.
same,GLY concentration in brain homogenate,[4],0.78 ± 0.10 nmol/g w.w.
same,HYS concentration in brain homogenate,[4],0.06 ± 0.01 µmol/g w.w.
same,ILE concentration in brain homogenate,[4],0.03 ± 0.01 µmol/g w.w.
same,LEU concentration in brain homogenate,[4],0.04 ± 0.01 µmol/g w.w.
same,LYS concentration in brain homogenate,[4],0.23 ± 0.07 µmol/g w.w.
same,ORN concentration in brain homogenate,[4],0.02 ± 0.01 µmol/g w.w.
same,SAH concentration in brain homogenate,[4],0.04 ± 0.04 nmol/g w.w.
same,TAU concentration in brain homogenate,[4],3.47 ± 0.44 nmol/g w.w.
same,THR concentration in brain homogenate,[4],0.77 ± 0.14 nmol/g w.w.
same,TYR concentration in brain homogenate,[4],0.14 ± 0.02 nmol/g w.w.
same,VAL concentration in brain homogenate,[4],0.07 ± 0.01 µmol/g w.w.
same,ALA concentration in brain homogenate,[5],0.57 ± 0.06 µmol/g w.w.
same,ARG concentration in brain homogenate,[5],0.13 ± 0.02 nmol/g w.w.
same,ASN concentration in brain homogenate,[5],0.1 ± 0.02 µmol/g w.w.
same,ASP concentration in brain homogenate,[5],4.17 ± 0.67 nmol/g w.w.
same,CITR concentration in brain homogenate,[5],0.03 ± 0.01 µmol/g w.w.
same,GABA concentration in brain homogenate,[5],1.73 ± 0.18 µmol/g w.w.
same,GLN concentration in brain homogenate,[5],4.1 ± 0.42 µmol/g w.w.
same,GLU concentration in brain homogenate,[5],12.1 ± 1.02 µmol/g w.w.
same,GLY concentration in brain homogenate,[5],0.98 ± 0.20 nmol/g w.w.
same,HYS concentration in brain homogenate,[5],0.06 ± 0.01 µmol/g w.w.
same,L-Cystat concentration in brain homogenate,[5],0.24 ± 0.04 µmol/g w.w.
same,LYS concentration in brain homogenate,[5],0.19 ± 0.06 µmol/g w.w.
same,MET concentration in brain homogenate,[5],0.03 ± 0.01 µmol/g w.w.
same,ORN concentration in brain homogenate,[5],0.01 ± 0.01 µmol/g w.w.
same,SAH concentration in brain homogenate,[5],0.04 ± 0.01 nmol/g w.w.
same,SER concentration in brain homogenate,[5],0.92 ± 0.16 µmol/g w.w.
same,TAU concentration in brain homogenate,[5],4.02 ± 0.51 nmol/g w.w.
same,THR concentration in brain homogenate,[5],0.71 ± 0.12 nmol/g w.w.
same,TYR concentration in brain homogenate,[5],0.13 ± 0.02 nmol/g w.w.
same,VAL concentration in brain homogenate,[5],0.08 ± 0.01 µmol/g w.w.
same,ALA concentration in brain homogenate,[6],0.44 ± 0.05 µmol/g w.w.
same,ARG concentration in brain homogenate,[6],0.15 ± 0.02 nmol/g w.w.
same,ASN concentration in brain homogenate,[6],0.1 ± 0.02 µmol/g w.w.
same,ASP concentration in brain homogenate,[6],3.63 ± 0.59 nmol/g w.w.
same,CITR concentration in brain homogenate,[6],0.03 ± 0.01 µmol/g w.w.
same,GLN concentration in brain homogenate,[6],3.86 ± 0.4 µmol/g w.w.
same,GLU concentration in brain homogenate,[6],11.8 ± 0.99 µmol/g w.w.
same,GLY concentration in brain homogenate,[6],0.88 ± 0.15 nmol/g w.w.
same,HYS concentration in brain homogenate,[6],0.06 ± 0.01 µmol/g w.w.
same,L-Cystat concentration in brain homogenate,[6],0.26 ± 0.04 µmol/g w.w.
same,LYS concentration in brain homogenate,[6],0.21 ± 0.04 µmol/g w.w.
same,MET concentration in brain homogenate,[6],0.04 ± 0.01 µmol/g w.w.
same,TAU concentration in brain homogenate,[6],3.51 ± 0.44 nmol/g w.w.
same,THR concentration in brain homogenate,[6],0.71 ± 0.15 nmol/g w.w.
same,TRP concentration in brain homogenate,[6],0.02 ± 0.01 µmol/g w.w.
same,TYR concentration in brain homogenate,[6],0.13 ± 0.02 nmol/g w.w.
same,VAL concentration in brain homogenate,[6],0.08 ± 0.01 µmol/g w.w.
same,ALA concentration in brain homogenate,[7],0.38 ± 0.04 µmol/g w.w.
same,ARG concentration in brain homogenate,[7],0.14 ± 0.02 nmol/g w.w.
same,ASN concentration in brain homogenate,[7],0.1 ± 0.02 µmol/g w.w.
same,CITR concentration in brain homogenate,[7],0.03 ± 0.01 µmol/g w.w.
same,GABA concentration in brain homogenate,[7],1.43 ± 0.15 µmol/g w.w.
same,GLN concentration in brain homogenate,[7],3.73 ± 0.38 µmol/g w.w.
same,GLU concentration in brain homogenate,[7],10.2 ± 0.86 µmol/g w.w.
same,GLY concentration in brain homogenate,[7],0.78 ± 0.12 nmol/g w.w.
same,HYS concentration in brain homogenate,[7],0.06 ± 0.01 µmol/g w.w.
same,L-Cystat concentration in brain homogenate,[7],0.25 ± 0.04 µmol/g w.w.
same,LYS concentration in brain homogenate,[7],0.21 µmol/g w.w.
same,MET concentration in brain homogenate,[7],0.04 ± 0.01 µmol/g w.w.
same,SAH concentration in brain homogenate,[7],0.04 ± 0.01 nmol/g w.w.
same,SER concentration in brain homogenate,[7],0.76 ± 0.12 µmol/g w.w.
same,TAU concentration in brain homogenate,[7],3.38 ± 0.44 nmol/g w.w.
same,THR concentration in brain homogenate,[7],0.72 ± 0.14 nmol/g w.w.
same,TYR concentration in brain homogenate,[7],0.14 ± 0.02 nmol/g w.w.
